Experimental data reported in patent publication US8067243B2 (priority 2008, dated 2011).
Like-named read-outs stand apart in the source and are kept apart here.

Columns and labels:
[1] = in vivo, cited from earlier work
[2] = drug screen, cited from earlier work
[3] = human, in vivo
[4] = in vivo; cited from earlier work

In the case of `CC(=O)Oc1ccc2c3c1O[C@H]1[C@@H](OC(C)=O)C=C[C@H]4[C@@H](C2)N(C)CC[C@@]341` [heroin, diacetyl morphine], the “heroin dose excreted as morphine-3-glucuronide” value [1] is listed as “Approximately 42%”.

In the case of `CN1[C@H]2CC[C@@H]1[C@@H](C(=O)O)[C@@H](OC(=O)c1ccccc1)C2` [Cocaine metabolite], the “Retention Time” value [2] is listed as 1 to 2 days.

In the case of `COc1ccc2c3c1O[C@H]1[C@@H](O)C=C[C@H]4[C@@H](C2)N(C)CC[C@@]341` [Codeine], the “Result (urine concentration)” value [3] is listed as 327 ng/mL and the “time to peak plasma concentration” value ([1]; po) is listed as “one”.

In the case of `CCO` [Ethanol], the “Retention Time” value [2] is listed as 0.083 to 0.583 days.

In the case of `CCOC(=O)C1(c2ccccc2)CCN(C)CC1` [Meperidine], the plasma half-life [1] is given as 3 h and the “Retention Time” value [4] is given as 1 to 2 days.

For `C=CCC1(C(C)C)C(=O)NC(=O)NC1=O` [Aprobarbital], the “Retention Time” value [2] is listed as 1 to 7 days.

In the case of `CCCC(C)C1(CC)C(=O)NC(=O)NC1=O` (centres unmarked) [Pentobarbital], the “Retention Time” value [2] is listed as 0.042 to 1 days.

For `COc1ccc2c3c1O[C@H]1C(=O)CC[C@H]4[C@@H](C2)N(C)CC[C@]314` [Hydrocodone], the “Result (urine concentration)” value [3] is given as 864 ng/mL, the “Retention Time” value [4] is given as 1 to 3 days and the “detection of free drug in urine by LC/MS/MS after administration” value [4] is given as 3 days.

For `c1ccc(C2(N3CCCCC3)CCCCC2)cc1` [Phencyclidine], the “Retention Time, Chronic Use” value ([2]; chronic use) is listed as “up to 30 days” and the “Retention Time” value [2] is listed as 8 days.

In the case of `CC(N)Cc1ccccc1` (centres unmarked) [Amphetamine], the “Retention Time” value [2] is listed as 1 to 2 days.

In the case of `CN1CC[C@]23c4c5ccc(O)c4O[C@H]2C(=O)CC[C@@]3(O)[C@H]1C5` [Oxymorphone], the “Result (urine concentration)” value [3] is given as 223 ng/mL, the “dose excreted in urine” value [1] is given as “About 49%” and the “Retention Time” value [4] is given as 1 to 3 days. For the same compound, the “Retention Time (SR)” value [4] was “(SR 2-4 days)”, the “detection of free drug in urine by LC/MS/MS after administration” value [4] was “up to 3 days” and the “detection of free drug in urine by LC/MS/MS after slow-release dosage form” value [4] was “up to 4 days”.

In the case of `COc1ccc2c3c1O[C@H]1C(=O)CC[C@@]4(O)[C@@H](C2)N(C)CC[C@]314` [Oxycodone], the “Result (urine concentration)” value [3] is listed as 544 ng/mL, the “oral dose eliminated in urine as oxymorphone” value ([1]; po) is listed as “about 14%” and the “oral dose eliminated in urine as total oxycodone” value ([1]; po) is listed as “approximately 60%”. For the same compound, the “Retention Time” value [4] was 1 to 3 days, the “Retention Time (SR)” value [4] was “(SR 2-4 days)” and the “detection of free drug in urine by LC/MS/MS after administration” value [4] was “up to 3 days”. The “detection of free drug in urine by LC/MS/MS after slow-release dosage form” value [4] was “up to 4 days”.

For `C=CCC1(C(C)CCC)C(=O)NC(=O)NC1=O` (centres unmarked) [Secobarbital], the “Retention Time” value [2] is listed as 0.042 to 1 days.

In the case of `CCC(C)C1(CC)C(=O)NC(=O)NC1=O` (centres unmarked) [Butabarbital], the “Retention Time” value [2] is listed as 1 to 7 days.

In the case of `CN1CC[C@]23c4c5ccc(O)c4O[C@H]2[C@@H](O)C=C[C@H]3[C@H]1C5` [Morphine], the “Result (urine concentration)” value [3] is listed as 104 ng/mL and the “dose excreted in urine as morphine-3-glucuronide” value [1] is listed as 70%.

For `CCC1(CCC(C)C)C(=O)NC(=O)NC1=O` [Amobarbital], the “Retention Time” value [2] is given as 1 to 7 days.

For `CCOC(=O)C1(c2ccccc2)CCNCC1` [Normeperidine], the plasma half-life [1] is given as 20 h.

For `C=CCC1(CC(C)C)C(=O)NC(=O)NC1=O` [Butalbital], the “Retention Time” value [2] is listed as 0.042 to 2 days.
